# Key:
# [1] = tested on: atherosclerosis; conditions: immunization with peptide or peptide combination; WO 02/080954 Table B; cited from earlier work
# [2] = tested on: CD11c(+) dendritic cells; assay: Flow cytometric analysis of dendritic cells at immunization site and lymph nodes; type: in vivo, mice; conditions: 1 week after the third immunization; compared with cBSA/alum group
# Experimental: (§1) Flow cytometric analysis was performed using standard protocols with antibodies listed in Table 1 below and a FACScan (Becton Dickinson) or a CyAn ADP analyzer (Beckman Coulter). For intracellular cytokine staining, Brefeldin A (3 μg/ml) was added to the cultured cells for 2 hours before cells subject to staining procedure. Cell membranes were permeabilized for staining intracellular molecules.
# Since DCs are the major cell type upstream to both cellular and humoral immune responses, Applicants determined if these cells were affected by the immunization strategy. […]
# [3] = tested on: TNP; assay: TNP-LPS immunization after p210 immunization, TNP IgG titer; type: in vivo, Male C57/BL6 mice; conditions: prior p210 immunization vs PBS or cBSA/alum; 100 μg TNP-LPS i.p.
# Text: (§2) The coating concentration was optimized in pilot experiments.
# [4] = tested on: superoxide; assay: Aortic superoxide production by in situ dihydroethidine method (AngII model); type: in vivo, mice; conditions: ± SEM; N = 9
# [5] = tested on: AT1 receptor (AT1R); assay: Aortic AT1 receptor expression by Western blot (AngII model); type: in vivo, mice; conditions: ± SEM; N = 6
# [6] = tested on: Granzyme B; assay: Granzyme B level in CD8(+) T-cells from immunized mice; type: cell-based; conditions: compared to PBS or cBSA/alum group
# Experimental: as §1
# [7] = tested on: BMDCs; assay: Endocytosis of FITC-labeled p210 by DCs in vitro; type: cell-based, mice; conditions: p210 labeled with FITC; FITC fluorescence in BMDCs
# Experimental: (§3) The method for generating BMDC with GM-CSF was adapted from previous publication with modification see reference (19). Briefly, bone marrow cells from femurs and tibiae of male apoE−/− mice were plated into 10 cm culture plates (Falcon) with 20 ml complete RPMI-1640 containing 10 ng/ml GM-CSF (R&D Systems) and 10 ng/ml IL-4 (Invitrogen). Cells were washed and fed on day 3 and day 5 by removing the old medium followed by replenishing with fresh culture medium with GM-CSF and IL-4. On day 8, the immature DC appeared as non-adherent cells under the microscope and harvested by vigorous pipetting and subcultured into new culture plates with 2×10^5 DCs in 1.5 ml medium.
# Peptide loading on BMDCs was defined using p210 labeled with FITC (FITC conjugating kit from Pierce).
# [8] = tested on: Male apoE (−/−) mice; assay: p210 immunization, aortic atherosclerosis (en face Oil Red O; aortic sinus immunohistochemistry); type: in vivo
# Text: Selection of peptides and their preparation for immunization The establishment and screening of human apoB-100 peptides has been reported (8). Based on Applicants pilot experiments and prior reports, see references (9),(10) Applicants selected peptide 210 (p210, KTTKQ SFDLS VKAQY KKNKH—SEQ ID NO: 210) as a candidate immunogen. Native p210 peptide (Euro-Diagnostica AB, Sweden) was conjugated to cationic bovine serum albumin (cBSA) as carrier using a method described previously see references (3), (4) Alum was used as adjuvant and mixed with peptide/cBSA conjugate with 1:1 ratio in volume. Peptide conjugation and mixing with alum were prepared fresh prior to each immunization.
# Male apoE (−/−) mice (Jackson Laboratories) were housed in an animal facility accredited by the American Association of Accreditation of Laboratory Animal Care and kept on a 12-hour day/night cycle with unrestricted access to water and food. The Institutional Animal Care and Use Committee of Cedars-Sinai Medical Center approved the experimental protocols. […] Mice, maintained on normal chow diet, received subcutaneous primary immunization in the dorsal area between scapulas at 6-7 weeks of age, followed by a booster at 9 and 12 weeks of age. One week after last booster, diet was switched to high cholesterol chow (TD 88137, Harlan-Teklad) and continued until euthanasia at the age of 25 weeks. Separate groups of mice receiving PBS or cBSA/alum at the same immunization time-points served as control. Some mice were sacrificed at 8 or 13 weeks of age to assess immune response against p210.
# At euthanasia the hearts were harvested and embedded in OCT compound (Tissue-Tek) for cryo-section. Whole aortas were cleaned, processed and stained with Oil Red 0 to assess the extent of atherosclerosis en face with computer-assisted histomorphometry, see references (3),(4).
# The sections from aortic sinus were stained with MOMA-2 (Serotec), or CD11c (eBioscience) antibody to identify macrophages or dendritic cells immunohistochemically using standard protocol. Oil-Red-O stain for plaque size was done using standard protocol. […]
# [9] = tested on: bone marrow derived DCs; assay: Cytolytic activity of CD8(+) T-cells from immunized mice against dendritic cells in vitro; type: cell-based
# Experimental: as §3
# CD8(+) T-cells were negatively isolated using a CD8 selection Dynabeads kit (Invitrogen) per manufacturer's protocol. […] After co-culture for 4 hours, cells were collected and processed for flow cytometric determination of CD11c and 7-AAD by LSR II flow cytometer (BD Biosciences) and data was analyzed with Summit V4.3 software. Dendritic cell death without CD8(+) T-cells in the co-culture was used as baseline and percentage of specific lysis of cells was calculated using a method described previously, see reference (20). […]
# Applicants therefore assessed the effect of the vaccine on cytotoxic activity of CD8^+ T cells against syngeneic bone marrow-derived DCs. […]
# [10] = tested on: Male apoE KO mice; assay: Blood pressure and heart rate in AngII-infused immunized mice; type: in vivo
# Experimental: Saline was delivered to the control group.
# Angiotensin II infusion via implanted osmotic pump was started at 10 weeks of age. Mice were euthanized at 14 weeks of age. Blood pressure was measured throughout the duration of experiment.
# [11] = tested on: Male apoE KO mice; assay: AngII-induced aortic aneurysm formation, rupture and survival after immunization
# Experimental: Fourteen P210, 17 cBSA, 16 PBS, and 8 Saline injected mice were examined.
# AngII (1000 ng/Kg/min) was delivered by a subcutaneous osmotic pump implanted at 10 weeks of age for 4 weeks to cause aneurysms in all three groups. Saline was delivered to the control group. Mice were sacrificed at 14 weeks of age of age. The mice were fed normal chow for the duration of experiment.
# 42 P210, 46 cBSA, 37 PBS, and 8 Saline injected mice were examined.
# AngII (1000 ng/Kg/min) was delivered by a subcutaneous osmotic pump implanted at 10 weeks of age for 4 weeks to cause aneurysms in all three groups. Saline was delivered to the control group. Mice were sacrificed at 14 weeks of age of age. The male apoE KO mice were fed normal chow for the duration of experiment.
# AngII (1000 ng/Kg/min) was delivered by a subcutaneous osmotic pump implanted at 10 weeks of age for 4 weeks to cause aneurysms in all three groups. Saline was delivered to the control group. Mice were sacrificed at 14 weeks of age of age. 42 P210, 46 cBSA, 37 PBS, and 8 Saline injected mice were examined. Mice were sacrificed at 14 weeks of age. The male apoE KO mice were fed normal chow for the duration of experiment.
# At 10 weeks of age, mice were subcutaneously implanted with an osmotic pump which released AngII (1 mg/Kg/min), and were euthanized 4 weeks later.
# [12] = tested on: CD8^+ CD25^− T cells; assay: Presentation of p210 by DCs to CD8+ CD25− T cells in vitro; type: cell-based, mice; conditions: 48 hours; DCs loaded with p210 and treated with LPS; compared to untreated or LPS only
# Text: The p210 peptide contains the proteoglycan binding site of the apoB-100 molecule. This peptide is a cell-penetrating peptide capable of efficiently delivering antigens for cross-presentation to cytotoxic CD8^+ T cells.^53 Applicants therefore assessed activation of CD8^+ CD25^− T cells co-cultured with DCs loaded with p210 and matured with LPS.
# [13] = tested on: IFN-γ expression of dendritic cells (DCs); assay: Flow cytometric analysis of intracellular IFN-γ expression of dendritic cells (AngII model); type: in vivo, mice; conditions: ± SEM of CD11c-gated cells
# [14] = tested on: KLH; assay: KLH immunization after p210 immunization, KLH IgG titer; type: in vivo, Male C57/BL6 mice; conditions: prior p210 immunization vs PBS or cBSA/alum; 100 μg KLH s.c. at 13 and 15 weeks
# Text: as §2
# [15] = tested on: Perforin; assay: Perforin level in CD8(+) T-cells from immunized mice; type: cell-based; conditions: compared to PBS or cBSA/alum group
# Experimental: as §1
# [16] = tested on: naïve male apoE (−/−) recipient mice; assay: Adoptive transfer of lymphocytes from immunized donors, aortic atherosclerosis in recipients; type: in vivo; conditions: 2×10^7 donor B-cells/mouse
# Text: Male apoE (−/−) mice on regular chow received subcutaneous immunization as described in previous paragraph and were sacrificed at 13 weeks of age as donors. Splenocytes from the same treatment group were pooled before cell isolation. Donor CD8(+) T-cells, CD4(+)CD25(+) T-cells or B-cells were isolated using Dynabeads FlowComp (Invitrogen) according to the manufacturer's protocols. CD4(+) T-cells were negatively selected from the splenocytes followed by positive selection of CD4(+)CD25(+) cells. B cells were negatively isolated whereas CD8(+) T-cells were positively isolated first and released from beads. The purity of pooled CD8(+) T-cells, CD4(+)CD25(+) T-cells and B-cells was 90%, 80% and 70%, respectively. The isolated CD8(+) T-cells (1×10^6 cells/mouse), CD4(+)CD25(+) T-cells (1×10^5 or 3×10^5 cells/mouse) or B-cells (2×10^7 cells/mouse) were then adoptively transferred to naïve male apoE (−/−) recipient mice at 6-7 weeks of age via tail vein injection. In the published literatures of vascular biology, the number of adoptively transferred lymphocytes varied greatly. For B-cells transfer, the number of 2×10^7 cells/mouse was chosen based on two prior reports, see references (11),(12). For CD4(+)CD25(+) T-cells transfer, the number of cells transferred ranged from 5×10^4 cells/mouse to 1×10^6 cells/mouse in the published literature see references (13),(14),(15). […]
# [17] = 100 μg s.c., three immunizations, high cholesterol chow, euthanasia at 25 weeks
# [18] = AngII pump 4 weeks, total 14 p210, 17 cBSA
substance,measurement,setting,value
EEEML ENVSL VCPKD ATRFK (EEEMLENVSLVCPKDATRFK) [p1],percentage reduction (atherosclerosis),[1],31%
HTFLI YITEL LKKLQ STTVM (HTFLIYITELLKKLQSTTVM) [p301],percentage reduction (atherosclerosis),[1],55.2%
IEIGL EGKGF EPTLE ALFGK (IEIGLEGKGFEPTLEALFGK) [p45],percentage reduction (atherosclerosis),[1],47.4%
KTTKQ SFDLS VKAQY KKNKH (KTTKQSFDLSVKAQYKKNKH) [p210],CD11c(+)CD86(+) cells in lymph nodes,[2],reduced CD11c(+)CD86(+) cells in lymph nodes
same,TNP-IgG titer,[3],no difference
same,Aortic superoxide production,[4],1.1 ± 0.1 arbitrary fluorescent intensity unit
same,Aortic AT1R,[5],1.0 ± 0.2 arbitrary densitometric unit
same,Granzyme B level in CD8(+) T-cells,[6],higher level of Granzyme B
same,uptake of FITC-labeled p210 by dendritic cells,[7],uptake of p210 by dendritic cells
same,reduction of aortic atherosclerosis compared to PBS group,[8]; [17],57%
same,reduction of aortic atherosclerosis compared to cBSA/Alum group,[8]; [17],50%
same,"athero-reduction, dose comparison","[8]; pilot experiment, 100 μg dose compared to 25 or 50 μg dose",optimum athero-reduction
same,"percent lysis relative to basal lysis, Normal medium","[9]; CD8:DC 3:1, 4 hours, 10% FBS, CD11c-gated cells, N = 11",significantly increased the percentage of DC death
same,cytolytic activity of CD8+ T cells after depletion of CD25+ cells,"[9]; FIG. 15, panel B",abrogated the increased cytolytic activity
same,percentage reduction (atherosclerosis),[1],57.9%
same,reduction in blood pressure,[10]; 4 weeks after pump implantation (FIG. 11),~11%
same,change in heart rate,[10]; 4 weeks after pump implantation (FIG. 12A),~7%
same,Mean Arterial Blood Pressure (BP),"[10]; ± SEM at 13 weeks of age, p210 N = 9, cBSA N = 7",124 ± 4 mmHg
same,Aneurysmal segment/total segment (%),"[11]; 8 aortic segments, AngII pump",14.3%
same,Survival at 28 days,"[11]; 28 days after osmotic pump implantation for Ang II infusion, 42 P210, 46 cBSA mice",90.5%
same,Aneurysm incidence,"[11]; Ang II pump, 42 P210, 46 cBSA mice",54.8%
same,Aneurysm (include Rupture) (number of mice),[11]; [18],8
same,Rupture (number of mice),[11]; [18],1
same,"Rupture incidence (%, total)",[11]; [18],7.1%
same,alive (number of mice),[11]; [18],13
same,CD8+ CD25+ T cells after co-culture with p210-loaded DCs,[12],significantly increased CD8^+ CD25^+ T cells
same,LN CD11c+CD86+IFN-γ+ DCs,[13]; N = 6,26.7 ± 1.6 percentage
same,Spleen CD11c+CD86+IFN-γ+ DCs,[13]; N = 8,19.5 ± 1.6 percentage
same,KLH-IgG titer,[14],no difference
same,perforin level in CD8(+) T-cells,[15],no difference in perforin level
same,atherosclerosis in recipients of B cells,[16],did not affect atherosclerosis

# Reference: patent publication US20130302362A1, “Immunomodulatory Compositions, Methods and Systems Comprising Immunogenic Fragments of ApoB-100” (CEDARS-SINAI MEDICAL CENTER, priority 2010, published 2013)
